The assay concerns SK-N-SH human neuroblastoma cells. The assay is described as follows: Serum Deprivation/JC-1 Mitochondrial Membrane Potential (MMP) Assay. Format: cell-based. The note with it: Homo sapiens; for activation at 3 µM: single dose 3 μM, JC-1 ratio normalized to peak value for 10 μM dimebolin (n=2-4), read-out: JC-1 max % (@ 3 μM); for activation at 3 µM / Emax: serum deprivation; for EC50 / Emax: SK-N-SH; for EC50: 18 h, serum deprivation ~18 hours, JC-1 ratio normalized to peak value for 10 μM dimebolin, single curve fit to mean data of n=2-3; for Emax: percent maximal intensity in JC-1 ratio normalized to peak value for 10 μM dimebolin, read-out: JC-1 max %. From the text:
The method also involves a high-throughput assay using serum-deprivation conditions involving neuronal cells to screen for compounds that increase or preserve mitochondrial membrane potential. Such compounds can be found to aid in rescuing cells from energy-depletion that occurs in several neurodegenerative states. Mitochondrial-mediated apoptosis occurs in response to a wide range of apoptotic stimuli including p^53, c-myc, DNA damage, prooxidants, chemotherapeutic agents, serum starvation and death receptor activation (Lin C—H., Lu Y-Z., Cheng, F-C., Chu L-F. and Hsuch C-M. Bax-regulated mitochondrial-mediated apoptosis is responsible for the in vitro ischemia induced neuronal cell death of Sprague Dawley rat. Neuroscience Lett. 2005, 387, 22-27).
Thus, this stress inducer, serum deprivation, combined with monitoring changes in the mitochondrial membrane potential in a 96-well format allows for the establishment of an efficient high-throughput screen (HTS) in order to evaluate the ability of compounds to increase mitochondrial membrane potential in the presence of stress and preserve health of the cell. Exemplary procedures for conducting such high-throughput assay are provided below.
SK-N-SH human neuroblastoma cells obtained from American Type Culture Collection (Rockville, Md.) were maintained in the log phase of growth in Minimal Essential Media (MEM), 10% heat inactivated fetal calf serum and 100 units/mL antibiotic-antimycotic (AA). Cells were cultured and maintained in a humidified incubator at 37° C. under 5% CO2 and 95% air. Cells were trypsinized (0.25%) and subcultured every 3 days and used from 15-18 passages. All cell culture supplies were obtained from Invitrogen (Carlsbad, Calif.).
SK-N-SH cells were plated 2-3 days in advance at a concentration of 50,000 cells/well onto collagen coated black-walled 96 well plates (Becton-Dickinson, Bedford, Mass.) in a total volume of […]. On day of experimental treatment, the media containing serum was aspirated from each well and rinsed once with MEM/1% AA without serum. The cells then were incubated overnight in 100 μL of MEM/1% AA (no serum) with and without dimebolin or novel chemical entities overnight for ˜18 hours. The following day, JC-1 dye (5,5′,6,6′-tetrachloro-1,1′,3,3′-tetraethylbenzimidazolcarbocyanide) was diluted 1:10 into MEM media according to the JC-1 Mitochondrial Membrane Potential Assay Kit: (Cayman Chemical Company, Ann Arbor, Mich.) and then 10 μL of the JC-1 dye solution was added to each well. The plates were centrifuged for 5 minutes at 400×g at room temperature followed by 40 minute incubation at 37° C. The plates were washed twice with 200 μL of provided Assay Buffer followed an addition of 100 μL of Assay Buffer to each well. The plates were read with an excitation and emission of 560 nm and 595 nM for red fluorescence and with an excitation and emission of 485 nm and 535 nM for green fluorescence to determine the final JC-1 value taking the red to green fluorescence ratio. This assay is based on change in mitochondrial membrane potential (MMP) using this lipophilic cationic dye, JC-1, by monitoring the changes in the ratio of red to green fluorescence as the MMP depolarizes. This change in MMP reflects the health of the cell with healthy, viable cells have a high JC-1 ratio and high MMP whereas apoptotic, unhealthy cells have a low JC-1 ratio or low MMP.
For the ability of compounds to reverse the stress due to serum deprivation and increase the JC-1 ratio, the percent maximal intensity in JC-1 ratio was normalized to that induced by the peak value for 10 μM dimebolin and plotted against the compound concentration to calculate EC50 values and to control for plate-to-plate variability. Concentration-response data were analyzed using GraphPad Prism (San Diego, Calif.); the EC50 values were derived from a single curve fit to the mean data of n=2-3, in duplicates. […]

What is called EC50 is the concentration that produces a half-maximal response.

For the compound `CCCCN(CC#N)C(=O)N1Cc2ccccc2N2CCN(Cc3ccccc3)CC2C1` (stereo not shown) [Example 165, 3-benzyl-N-butyl-N-(cyanomethyl)-1,2,3,4,4a,5-hexahydropyrazino[1,2-a][1,4]benzodiazepine-6(7H)-carboxamide], the activation at 3 µM came to 251%.
As for `Brc1ccc(CN2Cc3ccccc3N3CCN(Cc4ccccc4)CC3C2)nc1` (stereo not shown) [Example 42, 3-benzyl-6-[(5-bromopyridin-2-yl)methyl]-1,2,3,4,4a,5,6,7-octahydropyrazino[1,2-a][1,4]benzodiazepine], the EC50 came out at 3.09 µM and the Emax is 189%.
On the same counts, the results for `N#Cc1ccc(CN2Cc3ccccc3N3CCN(Cc4ccccc4)CC3C2)cc1` (stereo not shown) [Example 128, 4-[(3-benzyl-1,2,3,4,4a,5-hexahydropyrazino[1,2-a][1,4]benzodiazepin-6(7H)-yl)methyl]benzonitrile] are 4.25 µM and 168%.
On the same counts, the results for `Cc1ccc(CNC(=O)N2Cc3ccccc3N3CCN(Cc4ccccc4)CC3C2)o1` (stereo not shown) [Example 156, 3-benzyl-N-[(5-methyl-2-furyl)methyl]-1,2,3,4,4a,5-hexahydropyrazino[1,2-a][1,4]benzodiazepine-6(7H)-carboxamide] are 2.4 µM and 152%.
Turning to `O=C(N1CCOCC1)N1Cc2ccccc2N2CCNCC2C1` (stereo not shown) [Example 75, 1,2,3,4,4a,5-hexahydropyrazino[1,2-a][1,4]benzodiazepin-6(7H)-yl(morpholin-4-yl)methanone], the EC50 is > 10 µM and the Emax came out at 48%.
Regarding `Cc1cc(CN2Cc3ccccc3N3CCN(Cc4ccccc4)CC3C2)oc1C` (stereo not shown) [Example 120, 3-benzyl-6-[(4,5-dimethyl-2-furyl)methyl]-1,2,3,4,4a,5,6,7-octahydropyrazino[1,2-a][1,4]benzodiazepine], the activation at 3 µM was -5%.
Take `O=C(NCCc1ccccn1)N1Cc2ccccc2N2CCN(Cc3ccccc3)CC2C1` (stereo not shown) [Example 151, 3-benzyl-N-[2-(pyridin-2-yl)ethyl]-1,2,3,4,4a,5-hexahydropyrazino[1,2-a][1,4]benzodiazepine-6(7H)-carboxamide]: the EC50 was 1.8 µM and the Emax came out at 163%.
Take `O=C(N1CCOCC1)N1Cc2ccccc2N2CCN(S(=O)(=O)c3ccccc3)CC2C1` (stereo not shown) [Example 81, morpholin-4-yl[3-(phenylsulfonyl)-1,2,3,4,4a,5-hexahydropyrazino[1,2-a][1,4]benzodiazepin-6(7H)-yl]methanone]: the concentration giving a half-maximal response (EC50) was 9.92 µM and the Emax was 129%.
Take `CCOCC(=O)N1Cc2ccccc2N2CCN(Cc3ccccc3)CC2C1` (stereo not shown) [Example 113, 1-(3-benzyl-1,2,3,4,4a,5-hexahydropyrazino[1,2-a][1,4]benzodiazepin-6(7H)-yl)-2-ethoxyethanone]: the activation at 3 µM came out at 51%.
Still for that read-out and setting: the same measure for `NC(=O)C1(C(=O)N2Cc3ccccc3N3CCN(Cc4ccccc4)CC3C2)CC1` (stereo not shown) [Example 97, 1-[(3-benzyl-1,2,3,4,4a,5-hexahydropyrazino[1,2-a][1,4]benzodiazepin-6(7H)-yl)carbonyl]cyclopropanecarboxamide]: 32%; for `CCCCN1Cc2ccccc2N2CCN(Cc3ccccc3)CC2C1` (stereo not shown) [Example 129, 3-benzyl-6-butyl-1,2,3,4,4a,5,6,7-octahydropyrazino[1,2-a][1,4]benzodiazepine]: 40%.
As for `O=C(NCC1CC1)N1Cc2ccccc2N2CCN(Cc3ccccc3)CC2C1` (stereo not shown) [Example 160, 3-benzyl-N-(cyclopropylmethyl)-1,2,3,4,4a,5-hexahydropyrazino[1,2-a][1,4]benzodiazepine-6(7H)-carboxamide], the EC50 worked out at 0.645 µM and the Emax was found to be 245%.
The matching figures for `Clc1ccc(CCN2Cc3ccccc3N3CCN(Cc4ccccc4)CC3C2)cn1` (stereo not shown) [Example 63, 3-benzyl-6-[2-(6-chloropyridin-3-yl)ethyl]-1,2,3,4,4a,5,6,7-octahydropyrazino[1,2-a][1,4]benzodiazepine]: 1.95 µM and 173%.
As for `O=C(Cc1ccc(Cl)cc1)N1CCC2CN(Cc3ccccc3)CCN2c2ncccc21` (stereo not shown) [Example 53, 1-(9-benzyl-7,7a,8,9,10,11-hexahydropyrazino[1,2-d]pyrido[3,2-b][1,4]diazepin-5(6H)-yl)-2-(4-chlorophenyl)ethanone], the EC50 was determined as 9.88 µM and the Emax was 210%.
For the compound `Fc1cc(CN2Cc3ccccc3N3CCN(Cc4ccccc4)CC3C2)ccc1Br` (stereo not shown) [Example 23, 3-benzyl-6-(4-bromo-3-fluorobenzyl)-1,2,3,4,4a,5,6,7-octahydropyrazino[1,2-a][1,4]benzodiazepine], the EC50 was 5.72 µM and the Emax is 238%.
On the same counts, the results for `O=C1NCc2ccccc2N2CCN(Cc3ccc(F)cc3)CC12` (stereo not shown) [Example 38, 3-(4-fluorobenzyl)-2,3,4,4a,6,7-hexahydropyrazino[1,2-a][1,4]benzodiazepin-5(1H)-one] are > 30 µM and 27%.
The matching figures for `CC(C)N1CCN(C(=O)N2Cc3ccccc3N3CCN(Cc4ccccc4)CC3C2)CC1` (stereo not shown) [Example 161, (3-benzyl-1,2,3,4,4a,5-hexahydropyrazino[1,2-a][1,4]benzodiazepin-6(7H)-yl)(4-isopropylpiperazin-1-yl)methanone]: 3.18 µM and 218%.
The matching figures for `Brc1cccc(CN2Cc3ccccc3N3CCN(Cc4ccccc4)CC3C2)c1` (stereo not shown) [Example 136, 3-benzyl-6-(3-bromobenzyl)-1,2,3,4,4a,5,6,7-octahydropyrazino[1,2-a][1,4]benzodiazepine]: 2.2 µM and 172%.
On to `CC1(C)C(CN2CCC3CN(Cc4ccccc4)CCN3c3ncccc32)C1(C)C` (stereo not shown) [Example 59, 9-benzyl-5-[(2,2,3,3-tetramethylcyclopropyl)methyl]-5,6,7,7a,8,9,10,11-octahydropyrazino[1,2-d]pyrido[3,2-b][1,4]diazepine], for which the EC50 turned out to be 3.4 µM and the Emax was 306%.
Turning to `CC1(C)C(C(=O)N2CCC3CN(Cc4ccccc4)CCN3c3ncccc32)C1(C)C` (stereo not shown) [Example 58, (9-benzyl-7,7a,8,9,10,11-hexahydropyrazino[1,2-d]pyrido[3,2-b][1,4]diazepin-5(6H)-yl)(2,2,3,3-tetramethylcyclopropyl)methanone], the EC50 was determined as 3.65 µM and the Emax was 215%.
As for `c1ccc(CN2CCN3c4ccccc4CN(Cc4cnc5ccccc5c4)CC3C2)cc1` (stereo not shown) [Example 33, 3-benzyl-6-(quinolin-3-ylmethyl)-1,2,3,4,4a,5,6,7-octahydropyrazino[1,2-a][1,4]benzodiazepine], the EC50 is 1.3 µM and the Emax amounted to 192%.
Take `CCN(CCOC)C(=O)N1Cc2ccccc2N2CCN(Cc3ccccc3)CC2C1` (stereo not shown) [Example 157, 3-benzyl-N-ethyl-N-(2-methoxyethyl)-1,2,3,4,4a,5-hexahydropyrazino[1,2-a][1,4]benzodiazepine-6(7H)-carboxamide]: the activation at 3 µM stood at 264%.
On to `Clc1ccc(CCN2CCC3CN(Cc4ccccc4)CCN3c3ncccc32)cc1` (stereo not shown) [Example 54, 9-benzyl-5-[2-(4-chlorophenyl)ethyl]-5,6,7,7a,8,9,10,11-octahydropyrazino[1,2-d]pyrido[3,2-b][1,4]diazepine], for which the concentration for a half-maximal effect (EC50) was 3.59 µM and the Emax stood at 177%.

(Values after patent US9133206B2, “Benzodiazepine and pyridodiazepine derivatives” (AbbVie Inc., priority 2010, dated 2015).)
